Reference: PMC8948292, “Combining PEGylated mito-atovaquone with MCT and Krebs cycle redox inhibitors as a potential strategy to abrogate tumor cell proliferation” (Scientific Reports, 2022)
Like-named read-outs stand apart in the source and are kept apart here.

How the values were obtained:
MiaPaCa-2 cells = assay: Cell proliferation (cell confluence), IncuCyte Live-Cell Analysis System; format: cell-based, human; conditions: for IC50: Homo sapiens; for Inhibition of cell proliferation in combination with AZD-3965: combined with AZD-3965
Experimental: The following cell lines were obtained from the American Type Culture Collection (Manassas, VA), where they were regularly authenticated: MiaPaCa-2 (ATCC Cat# CRL-1420, human pancreatic cancer cells), U87MG (ATCC Cat# HTB-14, human brain cancer cells), A549 (ATCC Cat# CCL-185, lung cancer cells), and HCT-116 (ATCC Cat# CCL-247, colon cancer cells). All cell lines were grown at 37 °C in 5% carbon dioxide. MiaPaCa-2 cells were maintained in Dulbecco's Modified Eagle Medium (Thermo Fisher Scientific, Waltham, MA; Cat# 11965) supplemented with 10% fetal bovine serum. U87MG, A549, and HCT-116 cells were maintained in RPMI 1640 medium (Thermo Fisher Scientific, Cat# 11875), supplemented with 10% fetal bovine serum. All cells were stored in liquid nitrogen and used within 20 passages after thawing.
The IncuCyte Live-Cell Analysis System was used to monitor cell proliferation[3],[33],[67]. As shown in previous publications[3],[67], this imaging system is probe-free and noninvasive, and enables continuous monitoring of cell confluence over several days. The increase in the percentage of cell confluence was used as a surrogate marker of cell proliferation. In a 96-well plate, cells were plated at 1,000 cells per well in triplicates and left to adhere overnight. Cells were then treated with Mito-PEG-ATO analogs, and the cell confluency was recorded over several days in the IncuCyte Live-Cell Analysis System.

[1] = tested on: mitochondrial respiration (OCR) in intact MiaPaCa-2 cells; assay: Intact cell mitochondrial respiration (basal OCR), Seahorse XF-96; format: cell-based, human; conditions: for OCR (pmol/min/µg protein): intact MiaPaCa-2 cells, baseline OCR, mean, n=4; for IC50: Homo sapiens, read-out: IC50, inhibition of basal OCR in intact cells
Experimental: (§1) Mitochondrial oxygen consumption was measured using the Seahorse XF-96 Extracellular Flux Analyzer (Agilent, North Billerica, MA)[3],[33],[67],[68]. To determine the intact cell mitochondrial function of MiaPaCa-2 cells in response to Mito-PEG-ATO analogs, we used the bioenergetic function assay previously described[2],[3]. […] From these measurements, indices of mitochondrial function were determined as previously described[2],[3]. For mitochondrial complex activities assays, after cells were treated with Mito-PEG-ATO analogs for 24 h, the OCR-based assessment of mitochondrial complex activities was carried out on acutely permeabilized cells in the presence of different mitochondrial substrates, i.e., pyruvate/malate for complex I and duroquinol for complex III[3],[32],[34],[69]. Rotenone, malonate, and antimycin A (Sigma-Aldrich, St. Louis, MO) were used as specific inhibitors of mitochondrial complexes I, II, and III, respectively. Briefly, cells that were intact after treatments were immediately permeabilized using the Seahorse XF Plasma Membrane Permeabilizer (Agilent). The mitochondrial complex I-induced OCR was assayed in mannitol and sucrose buffer[69] containing 10 mM pyruvate and 1.5 mM malate (substrates for complex I) and 10 mM malonate (which inhibits complex II activities). The mitochondrial complex III-driven OCR was assayed in a mannitol and sucrose buffer containing 0.5 mM duroquinol (substrate for complex III) as well as 1 µM rotenone and 10 mM malonate (which inhibit both complex I and II activities). The IC50 values were determined as previously reported.

[2] = biological target: mitochondrial complex III (MiaPaCa-2 cells) (Homo sapiens, UniProt P00156); assay: Complex III-dependent oxygen consumption in permeabilized cells, Seahorse XF-96; format: cell-based
Experimental: as §1

[3] = MiaPaCa-2 cells, 1 µM, control ~90% confluence
[4] = MiaPaCa-2 cells, 3 µM, control ~90% confluence
[5] = MiaPaCa-2 cells, 10 µM, control ~90% confluence

Sequence of mitochondrial complex III (MiaPaCa-2 cells) (P00156 whole entry): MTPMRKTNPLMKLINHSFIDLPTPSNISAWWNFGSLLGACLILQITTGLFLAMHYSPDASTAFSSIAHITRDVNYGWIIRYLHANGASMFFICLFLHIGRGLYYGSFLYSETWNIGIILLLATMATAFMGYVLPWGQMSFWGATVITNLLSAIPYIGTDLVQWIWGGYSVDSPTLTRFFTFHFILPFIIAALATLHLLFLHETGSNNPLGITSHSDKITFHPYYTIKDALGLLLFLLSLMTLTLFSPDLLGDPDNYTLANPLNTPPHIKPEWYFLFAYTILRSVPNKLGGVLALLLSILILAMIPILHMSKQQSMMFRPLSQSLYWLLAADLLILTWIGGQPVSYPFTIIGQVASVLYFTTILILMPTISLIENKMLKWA
Sequence of mitochondrial complex III (MiaPaCa-2 cells) (P47985 whole entry partner): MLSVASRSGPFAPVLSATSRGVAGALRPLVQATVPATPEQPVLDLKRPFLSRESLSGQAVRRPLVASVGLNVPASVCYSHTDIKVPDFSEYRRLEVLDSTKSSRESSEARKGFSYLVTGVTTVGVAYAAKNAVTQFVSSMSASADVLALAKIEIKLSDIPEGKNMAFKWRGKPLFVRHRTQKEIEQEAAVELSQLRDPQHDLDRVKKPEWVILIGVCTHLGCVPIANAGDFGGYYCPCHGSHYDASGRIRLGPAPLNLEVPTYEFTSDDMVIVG

For O=C(Cc1cccc(OC(F)(F)F)c1)Nc1ccc(CCCCc2nnc(NC(=O)Cc3ccccn3)s2)nn1 [CB-839, Telaglenastat, reference compound], the IC50 (MiaPaCa-2 cells; MIA PaCa-2, MiaPaCa-2 cells, inhibitor alone, control ~90% confluence, read-out: IC50 (cell proliferation) without Mito-PEG5-ATO) was 19 µM and the “Inhibition of cell proliferation in combination with Mito-PEG5-ATO (combination index)” value (MiaPaCa-2 cells; MiaPaCa-2 cells, combined with Mito-PEG5-ATO) was “exhibits synergy”.

With O=C1C(OCCOCC[P+](c2ccccc2)(c2ccccc2)c2ccccc2)=C([C@H]2CC[C@H](c3ccc(Cl)cc3)CC2)C(=O)c2ccccc21.[Br-] [Mito-PEG2-ATO, [2-(2-((3-(trans-4-(4-chlorophenyl)cyclohexyl)-1,4-dioxo-1,4-dihydronaphthalen-2-yl)oxy)ethoxy)ethyl]triphenylphosphonium bromide] the “OCR (pmol/min/µg protein)” value ([1]; 0.01 µM, 24 h treatment) was 16.21 pmol/min/µg protein, the “OCR (pmol/min/µg protein)” value ([1]; 0.1 µM, 24 h treatment) was 14.62 pmol/min/µg protein and the “OCR (pmol/min/µg protein)” value ([1]; 0.2 µM, 24 h treatment) was 14.19 pmol/min/µg protein. The “OCR (pmol/min/µg protein)” value ([1]; 0.3 µM, 24 h treatment) was 13.58 pmol/min/µg protein, the “OCR (pmol/min/µg protein)” value ([1]; 0.4 µM, 24 h treatment) was 12.73 pmol/min/µg protein and the “OCR (pmol/min/µg protein)” value ([1]; 0.5 µM, 24 h treatment) was 10.74 pmol/min/µg protein. The “OCR (pmol/min/µg protein)” value ([1]; 0.75 µM, 24 h treatment) was 8.54 pmol/min/µg protein, the “OCR (pmol/min/µg protein)” value ([1]; 1 µM, 24 h treatment) was 6.82 pmol/min/µg protein and the “OCR (pmol/min/µg protein)” value ([1]; 3 µM, 24 h treatment) was 1.26 pmol/min/µg protein. For the same compound, the “OCR (pmol/min/µg protein)” value ([1]; 10 µM, 24 h treatment) was -0.10 pmol/min/µg protein, the IC50 ([1]; MIA PaCa-2, 24 h) was 0.76 µM and the IC50 (MiaPaCa-2 cells; MIA PaCa-2, read-out: IC50, inhibition of cell proliferation) was 0.3 µM. The “Cell confluence (% of control)” value (MiaPaCa-2 cells; MiaPaCa-2 cells, 0.003 µM, control ~90% confluence) was 95.33 % of control, the “Cell confluence (% of control)” value (MiaPaCa-2 cells; MiaPaCa-2 cells, 0.01 µM, control ~90% confluence) was 101.09 % of control and the “Cell confluence (% of control)” value (MiaPaCa-2 cells; MiaPaCa-2 cells, 0.03 µM, control ~90% confluence) was 98.91 % of control. The “Cell confluence (% of control)” value (MiaPaCa-2 cells; MiaPaCa-2 cells, 0.05 µM, control ~90% confluence) was 101.49 % of control, the “Cell confluence (% of control)” value (MiaPaCa-2 cells; MiaPaCa-2 cells, 0.1 µM, control ~90% confluence) was 100.20 % of control and the “Cell confluence (% of control)” value (MiaPaCa-2 cells; MiaPaCa-2 cells, 0.2 µM, control ~90% confluence) was 91.59 % of control. The “Cell confluence (% of control)” value (MiaPaCa-2 cells; MiaPaCa-2 cells, 0.3 µM, control ~90% confluence) was 54.02 % of control, the “Cell confluence (% of control)” value (MiaPaCa-2 cells; MiaPaCa-2 cells, 0.5 µM, control ~90% confluence) was 5.85 % of control and the “Cell confluence (% of control)” value (MiaPaCa-2 cells; [3]) was 3.35 % of control. For the same compound, the “Cell confluence (% of control)” value (MiaPaCa-2 cells; [4]) was 3.28 % of control, the “Cell confluence (% of control)” value (MiaPaCa-2 cells; [5]) was 2.85 % of control and the “Complex III activity (OCR, % of control)” value ([2]; 0.01 µM) was 103.6 % of control. For the same compound, the “Complex III activity (OCR, % of control)” value ([2]; 0.1 µM) was 95.3 % of control, the “Complex III activity (OCR, % of control)” value ([2]; 0.2 µM) was 101.4 % of control and the “Complex III activity (OCR, % of control)” value ([2]; 0.3 µM) was 99.3 % of control. For the same compound, the “Complex III activity (OCR, % of control)” value ([2]; 0.4 µM) was 99.1 % of control, the “Complex III activity (OCR, % of control)” value ([2]; 0.5 µM) was 88.9 % of control and the “Complex III activity (OCR, % of control)” value ([2]; 0.75 µM) was 75.4 % of control. The “Complex III activity (OCR, % of control)” value ([2]; 1 µM) was 64.3 % of control, the “Complex III activity (OCR, % of control)” value ([2]; 3 µM) was 15.0 % of control and the IC50 ([2]; MiaPaCa-2 cells, 24 h treatment, antimycin A-inhibitable OCR, read-out: IC50, complex III-induced oxygen consumption (Complex III activity)) was 1.2 µM.

In the case of CC(=O)N[C@@H](CS)C(=O)O [N-acetylcysteine, reference compound], the “Restoration of cell proliferation in cells treated with Mito-PEG5-ATO” value (MiaPaCa-2 cells; 10 mM, cells treated with Mito-PEG5-ATO, not shown) is reported as “did not restore cell proliferation”.

COCCOCCOCCOCCOC1=C([C@H]2CC[C@H](c3ccc(Cl)cc3)CC2)C(=O)c2ccccc2C1=O [PEG4-ATO, 2-((2,5,8,11-tetraoxatridecan-13-yl)oxy)-3-(trans-4-(4-chlorophenyl)cyclohexyl)naphthalene-1,4-dione] was tested, and the “OCR (pmol/min/µg protein)” value ([1]; 1 µM, 24 h treatment) was 14.02 pmol/min/µg protein, the “OCR (pmol/min/µg protein)” value ([1]; 3 µM, 24 h treatment) was 11.47 pmol/min/µg protein and the “OCR (pmol/min/µg protein)” value ([1]; 10 µM, 24 h treatment) was 8.99 pmol/min/µg protein. For the same compound, the “OCR (pmol/min/µg protein)” value ([1]; 15 µM, 24 h treatment) was 8.66 pmol/min/µg protein, the “OCR (pmol/min/µg protein)” value ([1]; 17.5 µM, 24 h treatment) was 8.14 pmol/min/µg protein and the “OCR (pmol/min/µg protein)” value ([1]; 20 µM, 24 h treatment) was 6.77 pmol/min/µg protein. The “OCR (pmol/min/µg protein)” value ([1]; 22.5 µM, 24 h treatment) was 6.79 pmol/min/µg protein, the “OCR (pmol/min/µg protein)” value ([1]; 25 µM, 24 h treatment) was 5.93 pmol/min/µg protein and the “OCR (pmol/min/µg protein)” value ([1]; 30 µM, 24 h treatment) was 6.26 pmol/min/µg protein. For the same compound, the “OCR (pmol/min/µg protein)” value ([1]; 40 µM, 24 h treatment) was 4.53 pmol/min/µg protein, the “OCR (pmol/min/µg protein)” value ([1]; 50 µM, 24 h treatment) was 2.22 pmol/min/µg protein and the IC50 ([1]; MIA PaCa-2, MiaPaCa-2 cells, 24 h treatment) was 22 µM. The IC50 (MiaPaCa-2 cells; MIA PaCa-2, MiaPaCa-2 cells, determined when control cells reached ~90% confluence, read-out: IC50, inhibition of cell proliferation) was 24 µM, the “Cell confluence (% of control)” value (MiaPaCa-2 cells; [3]) was 96.77 % of control and the “Cell confluence (% of control)” value (MiaPaCa-2 cells; [4]) was 98.45 % of control. For the same compound, the “Cell confluence (% of control)” value (MiaPaCa-2 cells; MiaPaCa-2 cells, 5 µM, control ~90% confluence) was 92.22 % of control, the “Cell confluence (% of control)” value (MiaPaCa-2 cells; [5]) was 88.90 % of control and the “Cell confluence (% of control)” value (MiaPaCa-2 cells; MiaPaCa-2 cells, 15 µM, control ~90% confluence) was 79.02 % of control. The “Cell confluence (% of control)” value (MiaPaCa-2 cells; MiaPaCa-2 cells, 20 µM, control ~90% confluence) was 50.78 % of control, the “Cell confluence (% of control)” value (MiaPaCa-2 cells; MiaPaCa-2 cells, 30 µM, control ~90% confluence) was 33.44 % of control and the “Cell confluence (% of control)” value (MiaPaCa-2 cells; MiaPaCa-2 cells, 35 µM, control ~90% confluence) was 24.27 % of control. The “Cell confluence (% of control)” value (MiaPaCa-2 cells; MiaPaCa-2 cells, 40 µM, control ~90% confluence) was 17.96 % of control and the “Cell confluence (% of control)” value (MiaPaCa-2 cells; MiaPaCa-2 cells, 50 µM, control ~90% confluence) was 10.27 % of control.

In the case of CN(C)C(=N)N=C(N)N [metformin, reference compound], the “Inhibition of cell proliferation in combination with AZD-3965” value (MiaPaCa-2 cells; MiaPaCa-2 cells) is reported as “Synergistic inhibition”.

With [H]/N=C(/N)N/C(=N/[H])NCCc1ccccc1 [phenformin, reference compound] the “Inhibition of cell proliferation in combination with AZD-3965” value (MiaPaCa-2 cells; MiaPaCa-2 cells) was “Synergistic inhibition”.
